Source: ChEMBL document CHEMBL2016506, “Glucose-aspirin: Synthesis and in vitro anti-cancer activity studies” (Bioorg Med Chem Lett, 2012)
pIC50: −log10 of the molar value. The source made the active and inactive calls. The calls are words filed in the database; no cut-off is given here.

Columns and labels:
SK-BR-3 [1] = assay: Growth inhibition of human SKBR3 cells at 2 x 10 '-3 M to 1.5 x 10^-4 M after 24 hrs by alamar blue assay; assay type: functional
WI-38 [2] = assay: Cytotoxicity against human WI38 cells after 24 hrs by alamar blue assay; assay type: cell-based; conditions: WI-38, 24 h
PC-3 [3] = assay: Growth inhibition of human PC3 cells at 2 x 10 '-3 M to 1.5 x 10^-4 M after 24 hrs by alamar blue assay; assay type: functional
SK-BR-3 [4] = assay: Cytotoxicity against human SKBR3 cells after 24 hrs by alamar blue assay; assay type: functional, cell-based; conditions: SK-BR-3, 24 h
PC-3 [5] = assay: Growth stimulation of human PC3 cells at 2 x 10^-3 M after 24 to 48 hrs by alamar blue assay; assay type: functional, cell-based
PANC-1 [6] = assay: Growth inhibition of human PANC1 cells at 300 uM after 24 hrs by alamar blue assay; assay type: functional; conditions: PANC-1, 24 h, read-out: GI
PANC-1 [7] = assay: Cytotoxicity against human PANC1 cells after 48 hrs by alamar blue assay; assay type: functional, cell-based; conditions: PANC-1, 48 h
SK-BR-3 [8] = assay: Ratio of IC50 for aspirin to compound IC50 for human SKBR3 cells; assay type: functional
PANC-1 [9] = assay: Growth inhibition of human PANC1 cells at 150 uM after 48 hrs by alamar blue assay; assay type: functional; conditions: PANC-1, 48 h, read-out: GI
PC-3 [10] = assay: Ratio of IC50 for aspirin to compound IC50 for human PC3 cells; assay type: functional
PANC-1 [11] = assay: Growth inhibition of human PANC1 cells at 2 x 10 '-3 M to 1.5 x 10^-4 M after 24 hrs by alamar blue assay; assay type: functional
PANC-1 [12] = assay: Cytotoxicity against human PANC1 cells after 24 hrs by alamar blue assay; assay type: functional, cell-based; conditions: PANC-1, 24 h
SK-BR-3 [13] = assay: Growth inhibition of human SKBR3 cells at 150 uM after 48 hrs by alamar blue assay; assay type: functional; conditions: SK-BR-3, 48 h, read-out: GI
WI-38 [14] = assay: Growth stimulation of human WI38 cells at 2 x 10^-3 to 3 x 10^-4 M after 24 to 48 hrs by alamar blue assay; assay type: functional, cell-based
PC-3 [15] = assay: Growth inhibition of human PC3 cells at 300 uM after 48 hrs by alamar blue assay; assay type: functional
WI-38 [16] = assay: Cytotoxicity against human WI38 cells after 48 hrs by alamar blue assay; assay type: cell-based; conditions: WI-38, 48 h
SK-BR-3 [17] = assay: Growth inhibition of human SKBR3 cells at 300 uM after 24 hrs by alamar blue assay; assay type: functional; conditions: SK-BR-3, 24 h, read-out: GI
SK-BR-3 [18] = assay: Growth inhibition of human SKBR3 cells at 300 uM after 48 hrs by alamar blue assay; assay type: functional
[19] = Drug metabolism in human serum assessed as compound hydrolysis after 3 hrs by HPLC analysis; assay type: ADME, cell-free; conditions: read-out: Drug metabolism
PC-3 [20] = assay: Cytotoxicity against human PC3 cells after 24 hrs by alamar blue assay; assay type: functional, cell-based; conditions: PC-3, 24 h
PC-3 [21] = assay: Growth inhibition of human PC3 cells at 300 uM after 24 hrs by alamar blue assay; assay type: functional; conditions: PC-3, 24 h, read-out: GI
PANC-1 [22] = assay: Growth inhibition of human PANC1 cells at 300 uM after 48 hrs by alamar blue assay; assay type: functional
PC-3 [23] = assay: Cytotoxicity against human PC3 cells after 48 hrs by alamar blue assay; assay type: functional, cell-based; conditions: PC-3, 48 h
[24] = Aqueous solubility of the compound in 300 ml water; assay type: physicochemical; conditions: buffer
SK-BR-3 [25] = assay: Cytotoxicity against human SKBR3 cells after 48 hrs by alamar blue assay; assay type: functional, cell-based; conditions: SK-BR-3, 48 h
PANC-1 [26] = assay: Ratio of IC50 for aspirin to compound IC50 for human PANC1 cells; assay type: functional
WI-38 [27] = assay: Cytotoxicity against human WI38 cells at 300 uM after 24 hrs by alamar blue assay; assay type: cell-based; conditions: wi-38, 24 h
PC-3 [28] = assay: Growth inhibition of human PC3 cells at 150 uM after 48 hrs by alamar blue assay; assay type: functional; conditions: PC-3, 48 h, read-out: GI
WI-38 [29] = assay: Cytotoxicity against human WI38 cells at 2 x 10^-3 to 3 x 10^-4 M after 48 hrs by alamar blue assay; assay type: cell-based; conditions: wi-38, 48 h
[30] = Aqueous solubility of the compound in 43 ml water; assay type: physicochemical; conditions: buffer
PANC-1 [31] = assay: Growth inhibition of human PANC1 cells at 2 x 10^-3 to 1.5 x 10^-4 M after 48 hrs by alamar blue assay; assay type: functional, cell-based
SK-BR-3 [32] = assay: Growth inhibition of human SKBR3 cells at 2 x 10^-3 to 1.5 x 10^-4 M after 48 hrs by alamar blue assay; assay type: functional, cell-based
WI-38 [33] = assay: Cytotoxicity against human WI38 cells at 2 x 10^-3 to 3 x 10^-4 M after 24 hrs by alamar blue assay; assay type: cell-based; conditions: wi-38, 24 h
PC-3 [34] = assay: Growth inhibition of human PC3 cells at 2 x 10^-3 to 1.5 x 10^-4 M after 48 hrs by alamar blue assay; assay type: functional, cell-based

Q: What does the source list for `CC(=O)Oc1ccccc1C(=O)O[C@@H]1[C@@H](O)[C@@H](O)O[C@H](CO)[C@H]1O`?
A: growth inhibition (GI) (SK-BR-3 [1]): 20%; pIC50 (WI-38 [2]): 3.42; growth inhibition (GI) (PC-3 [3]): 20%; pIC50 (SK-BR-3 [4]): 3.70; Activity (PC-3 [5]): Active; inhibition of growth at 300 µM (PANC-1 [6]): 60%; pIC50 (PANC-1 [7]): 4.04; Ratio IC50 (SK-BR-3 [8]): 8; inhibition of growth at 150 µM (PANC-1 [9]): 60%; Ratio IC50 (PC-3 [10]): 8; growth inhibition (GI) (PANC-1 [11]): 20%; pIC50 (PANC-1 [12]): 3.40; inhibition of growth at 150 µM (SK-BR-3 [13]): 60%; Activity (WI-38 [14]): Active; inhibition of growth at 300 µM (PC-3 [15]; PC-3, 48 h, read-out: GI): 85%; pIC50 (WI-38 [16]): 3.51; inhibition of growth at 300 µM (SK-BR-3 [17]): 60%; inhibition of growth at 300 µM (SK-BR-3 [18]; SK-BR-3, 48 h, read-out: GI): 90%; metabolised at 3 h [19]: 27%; pIC50 (PC-3 [20]): 4.08; inhibition of growth at 300 µM (PC-3 [21]): 60%; inhibition of growth at 300 µM (PANC-1 [22]; PANC-1, 48 h, read-out: GI): 70%; pIC50 (PC-3 [23]): 4.09; solubility [24]: soluble; pIC50 (SK-BR-3 [25]): 4.06; Ratio IC50 (PANC-1 [26]): 8; Activity (WI-38 [27]): Non-toxic; inhibition of growth at 150 µM (PC-3 [28]): 65%

Q: For `CC(=O)Oc1ccccc1C(=O)O` [ASPIRIN], which “growth inhibition (GI)” value (SK-BR-3 [1]) is on record?
A: inactive

Q: And the “growth inhibition (GI)” value (PC-3 [3])?
A: inactive

Q: What about the Activity (WI-38 [29]) of the same compound?
A: Toxic

Q: And the “growth inhibition (GI)” value (PANC-1 [11])?
A: inactive

Q: What about the “growth inhibition (GI)” value (PC-3 [15]) of the same compound?
A: Active

Q: And the solubility [30]?
A: soluble

Q: And the “growth inhibition (GI)” value (SK-BR-3 [18])?
A: Active

Q: And the “growth inhibition (GI)” value (PANC-1 [31])?
A: inactive

Q: What about the metabolised at 3 h [19] of the same compound?
A: 47%

Q: What about the pIC50 (PC-3 [20]) of the same compound?
A: 3.11

Q: And the “growth inhibition (GI)” value (SK-BR-3 [32])?
A: inactive

Q: What about the “growth inhibition (GI)” value (PANC-1 [22]) of the same compound?
A: Active

Q: And the pIC50 (PC-3 [23])?
A: 3.11

Q: What about the Activity (WI-38 [33]) of the same compound?
A: Toxic

Q: What about the “growth inhibition (GI)” value (PC-3 [34]) of the same compound?
A: inactive
